Our source for the EC50 values is patent publication US9896441B2 (Lycera Corporation, priority 2014, dated 2018).

Structures are written as SMILES.

In assay [1] the target is T1, Gal4-RORγ-LBD (Homo sapiens, UniProt P51449).
T1 construct: expressed in transfected cells
T1 sequence (P51449 269-508 limits assumed): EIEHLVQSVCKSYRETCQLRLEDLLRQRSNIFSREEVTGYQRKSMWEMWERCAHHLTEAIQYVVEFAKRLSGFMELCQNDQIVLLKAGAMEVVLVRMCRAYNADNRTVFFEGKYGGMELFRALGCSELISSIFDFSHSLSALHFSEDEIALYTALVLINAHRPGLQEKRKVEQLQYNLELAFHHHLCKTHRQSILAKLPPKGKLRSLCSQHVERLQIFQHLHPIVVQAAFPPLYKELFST
Briefly: Gal4-RORγ Luciferase Reporter Assay in HEK-293T Cells. It is filed as cell-based. The settings on record: HEK-293 cells, luciferase reporter, with ursolic acid. In short, it runs like this:
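Max Response was taken as the upper plateau of a 4-parameter logistic fit of luciferase signal, normalized to 100 for wells without ursolic acid or compound. Transiently Gal4-RORγ-LBD/Gal4-luc transfected HEK-293 cells carrying […] ursolic acid were incubated with test compounds (0.2% DMSO) overnight at 37 °C and read with One-Glo.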
In general terms: A reporter such as luciferase makes a cellular process visible.

Assay [2] has as its target T2, RORγ-LBD (Homo sapiens, UniProt P51449).
T2 construct: made in house; host or cells: SF9 cells (baculovirus); used as diluted lysate
T2 sequence (P51449 269-508 limits assumed): T1 sequence (P51449 269-508 limits assumed)
Briefly: RORγ-Ligand Binding Domain (LBD) TR-FRET Assay. Particulars: RORγ-LBD TR-FRET. It is filed as biochemical. In short, it runs like this:
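Compounds, diluted in DMSO and then in assay buffer (1% DMSO final), were combined with His-tagged RORγ-LBD lysate at roughly 3 nM final and a 200 nM biotinylated SRC1 LXXLL peptide. Ursolic acid was included at 2 μM final. Coactivator recruitment was detected by TR-FRET.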
For orientation: Time-resolved FRET reads energy transfer from a long-lived donor to a nearby acceptor.

Usually EC50 stands for the concentration that produces a half-maximal response.

Regarding `C/C(=C\c1cc(F)c2c(c1)N(S(=O)(=O)c1cccc(OC(F)F)c1)C[C@H](CCC(=O)O)O2)c1c(F)cccc1Cl` [Example 52, (S,E)-3-(6-(2-(2-Chloro-6-fluorophenyl)prop-1-en-1-yl)-4-((3-(difluoromethoxy)phenyl)sulfonyl)-8-fluoro-3,4-dihydro-2H-benzo[b][1,4]oxazin-2-yl)propanoic acid], the figures for the EC50 in assay [1] and in assay [2] were 0.5 to 5 µM and below 0.5 µM, respectively.
The corresponding values for `COC(=O)CC[C@H]1CN(S(=O)(=O)c2cccc(OC(F)F)c2)c2cc(/C=C(\C)c3c(F)cccc3Cl)c(C)cc2O1` [Example 53, (S,E)-Methyl 3-(6-(2-(2-chloro-6-fluorophenyl)prop-1-en-1-yl)-4-((3-(difluoromethoxy)phenyl)sulfonyl)-7-methyl-3,4-dihydro-2H-benzo[b][1,4]oxazin-2-yl)propanoate] are 0.5 to 5 µM and below 0.5 µM.
Take `C/C(=C\c1cc2c(cc1C)O[C@@H](CCC(=O)O)CN2S(=O)(=O)c1cccc(OC(F)F)c1)c1c(F)cccc1Cl` [Example 54, (S,E)-3-(6-(2-(2-Chloro-6-fluorophenyl)prop-1-en-1-yl)-4-((3-(difluoromethoxy)phenyl)sulfonyl)-7-methyl-3,4-dihydro-2H-benzo[b][1,4]oxazin-2-yl)propanoic acid]: the EC50 in assay [1] is 0.5 to 5 µM; in assay [2] it was below 0.5 µM.
For `COC(=O)CC[C@H]1CN(S(=O)(=O)c2cccc(C(F)(F)F)c2)c2cc(/C=C(\C)c3c(F)cccc3Cl)c(C)cc2O1` [Example 55, Methyl (S,E)-3-(6-(2-(2-chloro-6-fluorophenyl)prop-1-en-1-yl)-7-methyl-4-((3-(trifluoromethyl)phenyl)sulfonyl)-3,4-dihydro-2H-benzo[b][1,4]oxazin-2-yl)propanoate], the EC50 in assay [1] and in assay [2] was below 0.5 µM throughout.
In the case of `C/C(=C\c1cc2c(cc1C)O[C@@H](CCC(=O)O)CN2S(=O)(=O)c1cccc(C(F)(F)F)c1)c1c(F)cccc1Cl` [Example 56, (S,E)-3-(6-(2-(2-Chloro-6-fluorophenyl)prop-1-en-1-yl)-7-methyl-4-((3-(trifluoromethyl)phenyl)sulfonyl)-3,4-dihydro-2H-benzo[b][1,4]oxazin-2-yl)propanoic acid], the results for the EC50 in assay [1] and in assay [2] were above 10 µM and below 0.5 µM, respectively.
On to `COC(=O)CC[C@H]1CN(S(=O)(=O)c2cccc(C(F)(F)F)c2)c2c(ccc(/C=C(\C)c3c(F)cccc3Cl)c2C)O1` [Example 57, Methyl (S,E)-3-(6-(2-(2-chloro-6-fluorophenyl)prop-1-en-1-yl)-5-methyl-4-((3-(trifluoromethyl)phenyl)sulfonyl)-3,4-dihydro-2H-benzo[b][1,4]oxazin-2-yl)propanoate], for which the values for the concentration giving a half-maximal response (EC50) in assay [1] and in assay [2] were above 10 µM and below 0.5 µM, respectively.
As to `C/C(=C\c1ccc2c(c1C)N(S(=O)(=O)c1cccc(C(F)(F)F)c1)C[C@H](CCC(=O)O)O2)c1c(F)cccc1Cl` [Example 58, (S,E)-3-(6-(2-(2-Chloro-6-fluorophenyl)prop-1-en-1-yl)-5-methyl-4-((3-(trifluoromethyl)phenyl)sulfonyl)-3,4-dihydro-2H-benzo[b][1,4]oxazin-2-yl)propanoic acid], the EC50 in assay [1] is 0.5 to 5 µM; in assay [2] it was below 0.5 µM.
Taken in the same sequence, the figures for `COC(=O)CC[C@H]1CN(S(=O)(=O)c2cccc(OC(F)F)c2)c2c(ccc(/C=C(\C)c3c(F)cccc3Cl)c2C)O1` [Example 59, Methyl (S,E)-3-(6-(2-(2-chloro-6-fluorophenyl)prop-1-en-1-yl)-4-((3-(difluoromethoxy)phenyl)sulfonyl)-5-methyl-3,4-dihydro-2H-benzo[b][1,4]oxazin-2-yl)propanoate] were 0.5 to 5 µM and below 0.5 µM.
Taken in the same sequence, the figures for `C/C(=C\c1ccc2c(c1C)N(S(=O)(=O)c1cccc(OC(F)F)c1)C[C@H](CCC(=O)O)O2)c1c(F)cccc1Cl` [Example 60, (S,E)-3-(6-(2-(2-Chloro-6-fluorophenyl)prop-1-en-1-yl)-4-((3-(difluoromethoxy)phenyl)sulfonyl)-5-methyl-3,4-dihydro-2H-benzo[b][1,4]oxazin-2-yl)propanoic acid] were 0.5 to 5 µM and below 0.5 µM.
Consider `COC(=O)CC[C@H]1CN(S(=O)(=O)c2cccc(C(F)(F)F)c2)c2c(ccc(/C=C(\C)c3c(F)cccc3Cl)c2F)O1` [Example 61, Methyl (S,E)-3-(6-(2-(2-chloro-6-fluorophenyl)prop-1-en-1-yl)-5-fluoro-4-((3-(trifluoromethyl)phenyl)sulfonyl)-3,4-dihydro-2H-benzo[b][1,4]oxazin-2-yl)propanoate], for which the EC50 was 0.5 to 5 µM in assay [1] and below 0.5 µM in assay [2].
Turning to `C/C(=C\c1ccc2c(c1F)N(S(=O)(=O)c1cccc(C(F)(F)F)c1)C[C@H](CCC(=O)O)O2)c1c(F)cccc1Cl` [Example 62, (S,E)-3-(6-(2-(2-Chloro-6-fluorophenyl)prop-1-en-1-yl)-5-fluoro-4-((3-(trifluoromethyl)phenyl)sulfonyl)-3,4-dihydro-2H-benzo[b][1,4]oxazin-2-yl)propanoic acid], the EC50 in assay [1] is 0.5 to 5 µM; in assay [2], below 0.5 µM.
Consider `COC(=O)CC[C@H]1CN(S(=O)(=O)c2cccc(OC(F)F)c2)c2c(ccc(/C=C(\C)c3c(F)cccc3Cl)c2F)O1` [Example 63, Methyl (S,E)-3-(6-(2-(2-chloro-6-fluorophenyl)prop-1-en-1-yl)-4-((3-(difluoromethoxy)phenyl)sulfonyl)-5-fluoro-3,4-dihydro-2H-benzo[b][1,4]oxazin-2-yl)propanoate], for which the EC50 is 0.5 to 5 µM in assay [1] and below 0.5 µM in assay [2].
Taken in the same sequence, the figures for `C/C(=C\c1ccc2c(c1F)N(S(=O)(=O)c1cccc(OC(F)F)c1)C[C@H](CCC(=O)O)O2)c1c(F)cccc1Cl` [Example 64, (S,E)-3-(6-(2-(2-Chloro-6-fluorophenyl)prop-1-en-1-yl)-4-((3-(difluoromethoxy)phenyl)sulfonyl)-5-fluoro-3,4-dihydro-2H-benzo[b][1,4]oxazin-2-yl)propanoic acid] were 0.5 to 5 µM and below 0.5 µM.
Consider `CCOc1ncc(Cl)cc1S(=O)(=O)N1C[C@H](CCC(=O)OC)Oc2ccc(/C=C(\C)c3c(F)cccc3Cl)cc21` [Example 67, Methyl (S,E)-3-(4-((5-chloro-2-ethoxypyridin-3-yl)sulfonyl)-6-(2-(2-chloro-6-fluorophenyl)prop-1-en-1-yl)-3,4-dihydro-2H-benzo[b][1,4]oxazin-2-yl)propanoate], for which the EC50 was 0.5 to 5 µM in assay [1] and below 0.5 µM in assay [2].
For `CCOc1ncc(Cl)cc1S(=O)(=O)N1C[C@H](CCC(=O)O)Oc2ccc(/C=C(\C)c3c(F)cccc3Cl)cc21` [Example 68, (S,E)-3-(4-((5-Chloro-2-ethoxypyridin-3-yl)sulfonyl)-6-(2-(2-chloro-6-fluorophenyl)prop-1-en-1-yl)-3,4-dihydro-2H-benzo[b][1,4]oxazin-2-yl)propanoic acid], the EC50 in assay [1] is 0.5 to 5 µM; in assay [2] it was below 0.5 µM.
Turning to `COC(=O)CC[C@H]1CN(S(=O)(=O)c2cc(Cl)cnc2OCCO)c2cc(/C=C(\C)c3c(F)cccc3Cl)ccc2O1` [Example 69, Methyl (S,E)-3-(4-((5-chloro-2-(2-hydroxyethoxy)pyridin-3-yl)sulfonyl)-6-(2-(2-chloro-6-fluorophenyl)prop-1-en-1-yl)-3,4-dihydro-2H-benzo[b][1,4]oxazin-2-yl)propanoate], the half-maximal effective concentration (EC50) in assay [1] is above 10 µM; in assay [2] it was below 0.5 µM.
